Patent US20050014280A1, “In vitro method for determining drug permeability using immobilized artificial membrane chromatography” (priority 2003, published 2005)
Where two headings read alike, the source gives them in different places. One block for each compound: values may come before it.

Experiments:
[1] = Immobilized artificial membrane (IAM) HPLC capacity factor; format: physicochemical; conditions: 37° C.; for k′IAM (capacity factor): 1.0 ml/min, from average of 3 runs
Description: Sample Preparation: Between 3 and 10 mg of each sample was dissolved in a solution of 10% methanol, 90% water in preparation for injection onto the column.
HPLC Conditions: A Regis IAM.PC.DD2 column (30 mm×4.6 mm, 12 μm) was used, run at 37° C. at a flow rate of 1.0 ml/min. […] Elution of reference compounds was detected by ultraviolet absorbance at 210 nm.
Calculation of k′: Sodium nitrate was injected onto the column and the elution time was measured in order to determine the time for the void volume, t0, to pass through the column. Each reference compound was then injected onto the column and retention time, tR was recorded by detecting elution by measuring UV absorbance at 210 nm. The capacity factor, k′, was calculated by determining the adjusted retention time and dividing by the time for void volume elution, according to the formula k′=(tR−t0)/t0.
Each reference compound was tested three times and an average retention time was used.

[2] = Caco-2 cell permeability assay (published Pm values); format: in vitro ADME; conditions: human
Description: Drug permeability assays using Caco-2 cells are currently widely used. Caco-2 cells are human colon adenocarcinoma cells that differentiate in culture to resemble intestinal epithelial cells.
The inventors used 21 reference compounds having a single positive charge at the pH at which the chromatography was performed, each having a published known permeability value, Pm, as determined by a Caco-2 cell assay by the various methods set out in references 1-7, below. The conditions used to determine the Caco-2 Pm values were generally similar in the cited references, although certain conditions varied between assays. Generally, the assays were performed at pH 7.4, with the exception of procaine and sumatriptan, for which the pH was 5.5 and 6.5, respectively. Therefore, for the experiments set out below, the pH of the mobile phase was 7.4 for all compounds except procaine (pH 5.5) and sumatriptan (6.5).

[3] = tested on: Caco-2 cells; conditions: cited from earlier work
[4] = mobile phase 85% 0.05 M ammonium phosphate pH 7.4 / 15% acetonitrile
[5] = mobile phase buffer pH 7.4 / 15% acetonitrile
[6] = Caco 2 donor pH 7.4, log of Pm in 10^−6 cm/s, read-out: Pm (converted)
[7] = mobile phase buffer pH 5.5 / 15% acetonitrile
[8] = mobile phase buffer pH 6.5 / 15% acetonitrile

k′IAM (capacity factor) [1, 4]: 19.190
logk′IAM [1, 5]: 1.283
Papp [2, 6]: 25.3 ×10⁻⁶ cm/s
SMILES: C=CCc1ccccc1OCC(O)CNC(C)C (stereo not shown) [Alprenolol]
Pm ([3]; Caco 2 donor pH 7.4): 25.3 10^−6 cm/s
Pm of Caco-2 Assay ([3]; published Caco-2 assay, pH 7.4): 25.3 +/− 10^−6 cm/s

k′IAM (capacity factor) [1, 4]: 3.600
logk′IAM [1, 5]: 0.556
Papp ([2]; Caco-2, pH 7.4): 23.7 ×10⁻⁶ cm/s
SMILES: COCCc1ccc(OCC(O)CNC(C)C)cc1 (stereo not shown) [Metoprolol]
Pm ([3]; Caco 2 donor pH 7.4): 23.7 10^−6 cm/s
Pm of Caco-2 Assay ([3]; published Caco-2 assay, pH 7.4): 23.7 +/− 10^−6 cm/s

k′IAM (capacity factor) [1, 4]: 4.712
logk′IAM [1, 5]: 0.673
Papp ([2]; Caco-2, pH 7.4): 16.7 ×10⁻⁶ cm/s
SMILES: CC(C)NCC(O)COc1cccc2[nH]ccc12 (stereo not shown) [Pindolol]
Pm ([3]; Caco 2 donor pH 7.4): 16.7 10^−6 cm/s
Pm of Caco-2 Assay ([3]; published Caco-2 assay, pH 7.4): 16.7 +/− 10^−6 cm/s

k′IAM (capacity factor) [1, 4]: 31.148
logk′IAM [1, 5]: 1.493
Papp ([2]; Caco-2, pH 7.4): 32.5 ×10⁻⁶ cm/s
SMILES: CC(C)NCC(O)COc1cccc2ccccc12 (stereo not shown) [Propranolol]
Pm ([3]; Caco 2 donor pH 7.4): 32.5 10^−6 cm/s
Pm of Caco-2 Assay ([3]; Caco-2, pH 7.4): 1.94 +/− 10^−6 cm/s

More lines, now with the values behind:

SMILES: Clc1cccc(Cl)c1N=C1NCCN1 [Clonidine]
k′IAM (capacity factor) [1, 4]: 3.841
logk′IAM [1, 5]: 0.584
Papp ([2]; Caco-2, pH 7.4): 21.8 ×10⁻⁶ cm/s
Pm ([3]; Caco 2 donor pH 7.4): 21.8 10^−6 cm/s
Pm of Caco-2 Assay ([3]; published Caco-2 assay, pH 7.4): 21.8 +/− 10^−6 cm/s

SMILES: COc1ccc([C@@H]2Sc3ccccc3N(CCN(C)C)C(=O)[C@@H]2OC(C)=O)cc1 [Diltiazem]
k′IAM (capacity factor) [1, 4]: 24.145
logk′IAM [1, 5]: 1.383

SMILES: CN(C)CCCN1c2ccccc2CCc2ccccc21 [Imipramine]
k′IAM (capacity factor) [1, 4]: 91.053
logk′IAM [1, 5]: 1.959

SMILES: CC(CCc1ccccc1)NCC(O)c1ccc(O)c(C(N)=O)c1 (stereo not shown) [Labetalol]
k′IAM (capacity factor) [1, 4]: 12.940
logk′IAM [1, 5]: 1.112

SMILES: CC(C)(C)NCC(O)COc1cccc2c1CC(O)C(O)C2 (stereo not shown) [Nadolol]
k′IAM (capacity factor) [1, 4]: 1.717
logk′IAM [1, 5]: 0.235
Papp [2, 6]: 3.88 ×10⁻⁶ cm/s
Pm ([3]; Caco 2 donor pH 7.4): 3.88 10^−6 cm/s
Pm of Caco-2 Assay ([3]; published Caco-2 assay, pH 7.4): 3.88 +/− 10^−6 cm/s

SMILES: CCN(CC)CCOC(=O)c1ccc(N)cc1 [Procaine]
logk′IAM [1, 7]: −0.368
k′IAM (capacity factor) [1, 7]: 0.428
Papp ([2]; Caco 2 donor pH 5.5, log of Pm in 10^−6 cm/s, read-out: Pm (converted)): 1.94 ×10⁻⁶ cm/s
Pm ([3]; Caco 2 donor pH 5.5): 1.94 10^−6 cm/s
Pm of Caco-2 Assay ([3]; published Caco-2 assay, pH 5.5): 1.94 +/− 10^−6 cm/s

SMILES: CN/C(=C\[N+](=O)[O-])NCCSCc1ccc(CN(C)C)o1 [Ranitidine]
k′IAM (capacity factor) [1, 4]: 1.232
logk′IAM [1, 5]: 0.091
Papp [2, 6]: 0.49 ×10⁻⁶ cm/s
Pm ([3]; Caco 2 donor pH 7.4): 0.49 10^−6 cm/s
Pm of Caco-2 Assay ([3]; published Caco-2 assay, pH 7.4): 0.49 +/− 10^−6 cm/s

SMILES: CCN1CCCC1CNC(=O)c1cc(S(N)(=O)=O)ccc1OC (stereo not shown) [Sulpiride]
k′IAM (capacity factor) [1, 4]: 1.804
logk′IAM [1, 5]: 0.256

SMILES: CNS(=O)(=O)Cc1ccc2[nH]cc(CCN(C)C)c2c1 [Sumatriptan]
logk′IAM [1, 8]: −0.077
k′IAM (capacity factor) [1, 8]: 0.837
Papp ([2]; Caco 2 donor pH 6.5, log of Pm in 10^−6 cm/s, read-out: Pm (converted)): 3 ×10⁻⁶ cm/s
Pm ([3]; Caco 2 donor pH 6.5): 3 10^−6 cm/s
Pm of Caco-2 Assay ([3]; published Caco-2 assay, pH 6.5): 3 10^−6 cm/s

SMILES: CC(C)(C)NCC(O)c1cc(O)cc(O)c1 (stereo not shown) [Terbutaline]
k′IAM (capacity factor) [1, 4]: 1.276
logk′IAM [1, 5]: 0.106
Papp [2, 6]: 1.4 ×10⁻⁶ cm/s
Pm ([3]; Caco 2 donor pH 7.4): 1.4 10^−6 cm/s
Pm of Caco-2 Assay ([3]; published Caco-2 assay, pH 7.4): 1.4 +/− 10^−6 cm/s
